We go through 2 compounds from patent publication US7160913B2, “Methods and kit for treating Parkinson's disease” (Thomas Jefferson University, priority 2002, dated 2007).

The test system of data set [1] is parkinsonian monkey. Kind of data set: Severity of levodopa-induced choreiform dyskinesias in a parkinsonian monkey. The format is in vivo. As for the experimental part:
A parkinsonian monkey was primed for choreiform dyskinesia following chronic administration of levodopa plus the peripheral dopa decarboxylase inhibitor benserazide. […] Severity of the dyskinesias was rated by observers blind to the treatment condition. Three independent repetitions of the study were performed.

Data set [2] relates to parkinsonian monkeys. Nature of the data set: Peak-dose levodopa anti-parkinsonian efficacy in parkinsonian monkeys. To be noted: 8 mg/kg D-cycloserine with 40 mg/kg levodopa plus 15 mg benserazide; assessed 30 or 60 minutes after levodopa; two parkinsonian monkeys. It counts as in vivo, monkey. As for the experimental part:
In two parkinsonian monkeys with an established therapeutic response to levodopa, peak-dose levodopa efficacy was assessed by raters blind to treatment condition. Eight mg/kg D-cycloserine was administered to the monkeys with 40 mg/kg levodopa plus 15 mg benserazide.

The subject of data set [3] is parkinsonian monkeys. Kind of data set: Duration of levodopa anti-Parkinson effect ("on" time) in parkinsonian monkeys. It counts as in vivo, monkey. To be noted: 8 mg/kg D-cycloserine with 40 mg/kg levodopa plus 15 mg benserazide, compared to levodopa plus benserazide alone; two parkinsonian monkeys; blinded raters. As for the experimental part: Eight mg/kg D-cycloserine was administered to two parkinsonian monkeys with an established therapeutic response to levodopa, together with 40 mg/kg levodopa plus the 15 mg of the peripheral dopa decarboxylase inhibitor benserazide. Symptomatic benefit was assessed by raters blind to treatment condition.

The test system of data set [4] is parkinsonian monkey. Kind of data set: Severity of levodopa-induced dystonias in a parkinsonian monkey. The format is in vivo. Conditions: 8 mg/kg D-cycloserine with 40 mg/kg levodopa plus 15 mg benserazide vs L-Dopa alone; at least over 120 minutes; three repetitions. As for the experimental part:
Under these conditions, 8 mg/kg D-cycloserine was administered to the monkeys with 40 mg/kg levodopa plus 15 mg benserazide. The severity of the dystonia was rated by observers blind to the treatment condition. […] Three independent repetitions of the study were performed.

Turning to `N[C@@H]1CONC1=O` [D-cycloserine], the “severity of levodopa-induced choreiform dyskinesias” value in the data set on parkinsonian monkey [1] (8 mg/kg D-cycloserine with 40 mg/kg levodopa plus 15 mg benserazide vs L-Dopa alone, at least over 120 minutes, monkey primed by chronic levodopa/benserazide, three repetitions) was “significantly decreased the severity of these dyskinesias”. For the same compound, the “effect on therapeutic (anti-parkinsonian) efficacy of levodopa, peak-dose” value in the data set with parkinsonian monkeys [2] was “did not interfere with or reduce the therapeutic efficacy of levodopa”. In addition, the “enhancement of levodopa "on" time, or duration of symptomatic relief by levodopa” value in the data set on parkinsonian monkeys [3] is recorded as 41%. For the same compound, the “severity of levodopa-induced dystonias” value in the data set with parkinsonian monkey [4] is on record as “significantly decreased the severity of the dystonias”.
As for `N[C@@H](Cc1ccc(O)c(O)c1)C(=O)O` [levodopa], the “choreiform dyskinesias caused by levodopa challenge” value in the data set on parkinsonian monkey [1] (40 mg/kg challenge dose of levodopa, parkinsonian monkey primed by chronic levodopa plus benserazide) is on record as “caused significant choreiform dyskinesias”.
